Test results reported in publication PMC9672040, “Identification of purine biosynthesis as an NADH-sensing pathway to mediate energy stress” (Nature Communications, 2022).
Where two headings read alike, the source gives them in different places.

Assays:
[1] = target: T1, PRPS1 (Homo sapiens, UniProt P60891); test: biochemical; design: PRPS1/2 activity by ATP consumption, Kinase-Glo luminescence
T1 construct: His-tagged, pET-28a, expressed in E. coli BL21, Ni-Sepharose purified
T1 sequence (P60891 2-318): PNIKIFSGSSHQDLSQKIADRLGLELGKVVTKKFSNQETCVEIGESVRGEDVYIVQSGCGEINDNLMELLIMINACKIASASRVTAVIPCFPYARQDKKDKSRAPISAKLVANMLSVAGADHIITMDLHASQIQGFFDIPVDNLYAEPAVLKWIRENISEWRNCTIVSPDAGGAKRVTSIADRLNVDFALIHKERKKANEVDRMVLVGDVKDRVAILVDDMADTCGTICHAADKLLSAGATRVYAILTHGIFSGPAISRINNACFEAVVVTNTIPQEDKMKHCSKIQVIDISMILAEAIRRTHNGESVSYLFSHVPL

[2] = target: T2, PRPS2 (Homo sapiens, UniProt P11908); test: biochemical; design: PRPS1/2 activity by ATP consumption, Kinase-Glo luminescence
T2 construct: His-tagged, pET-28a, expressed in E. coli BL21, Ni-Sepharose purified; the AlphaFold id for docking (AF-P60891-F1) is that of PRPS1
T2 sequence (P11908 2-318): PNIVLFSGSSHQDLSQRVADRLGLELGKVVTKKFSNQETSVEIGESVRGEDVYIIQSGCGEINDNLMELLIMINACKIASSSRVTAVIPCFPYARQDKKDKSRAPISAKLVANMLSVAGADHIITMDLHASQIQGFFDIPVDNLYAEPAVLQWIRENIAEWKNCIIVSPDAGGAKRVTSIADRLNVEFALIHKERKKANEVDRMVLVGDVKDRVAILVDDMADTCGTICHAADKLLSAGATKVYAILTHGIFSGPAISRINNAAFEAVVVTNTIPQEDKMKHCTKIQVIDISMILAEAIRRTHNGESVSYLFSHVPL

[3] = target: T1, PRPS1; test: ATP consumption, Kinase-Glo; type: biochemical; details: 300 µM ATP, 300 µM R-5-P, 5 mM MgCl2, 5 mM Na3PO4, pH 7.5, 37 °C; allosteric effector
[4] = target: T2, PRPS2; test: ATP consumption, Kinase-Glo; type: biochemical; details: 300 µM ATP, 300 µM R-5-P, 5 mM MgCl2, 5 mM Na3PO4, pH 7.5, 37 °C; allosteric effector
[5] = tested on: T3, HeLa Tet-on EcSTH-LbNOX; test: cells; design: Sensitivity of HeLa cells to menadione, proliferation after 48 h; details: Homo sapiens, 48 h, Dox-, read-out: IC50 menadione
T3 construct: HeLa with inducible Tet-on EcSTH-LbNOX, not induced

[6] = tested on: T4, HeLa Tet-on EcSTH; test: cells; design: Sensitivity of HeLa cells to menadione, proliferation after 48 h; details: Homo sapiens, 48 h, Dox-, read-out: IC50 menadione
T4 construct: HeLa with inducible Tet-on EcSTH, not induced
Method: From top to bottom: **P < 0.0001, **P < 0.0001, **P < 0.0001, two-way ANOVA. d Effects of EGFP, EcSTH, LbNOX, or EcSTH-LbNOX expression on colony formation in HeLa cells cultured with Dox, as indicated, for 10 days (n = 3 biologically independent samples). From left to right: *P = 0.013, **P = 0.0001, **P = 6.58e-07, two-tailed Student’s t-tests. e The in vivo tumor growth of HeLa cells expressing inducible Tet-on EcSTH or EcSTH-LbNOX (n = 5 biologically independent animals). 2 mg/mL Dox was added in drinking water on day 10 and updated every two days. **P < 0.0001, two-way ANOVA. f Effects of α-KB treatment on proliferation of HeLa^Tet-on EcSTH cells. Cells were counted after treatment with Dox (1 µg/mL) and α-KB (1 or 2 mM) for 48 h (n = 4 biologically independent samples). From left to right: **P = 2.44e-06, **P = 1.85e-06, two-tailed Student’s t-tests. g Effects of inhibitors on proliferation of HeLa^Tet-on EcSTH cells. Cells were pretreated with the indicated inhibitors for 2 h, and cells were counted after treatment with Dox (1 µg/mL) for 48 h (n = 3 biologically independent samples). z-VAD (z-VAD-FMK, 20 µM), NSA (necrosulfonamide, 10 µM), Ferr-1 (Ferrostain-1, 5 µM). […] Cell apoptosis was measured by Flow cytometry after treatment with Dox (1 µg/mL) and α-KB (2 mM) for 24 h (n = 3 biologically independent samples). […]

[7] = target: T2, PRPS2; test: SPR (Biacore T200), His-PRPS2 immobilized on CM5 chip; type: binding; details: read-out: dissociation constant
[8] = tested on: T5, EcSTH-LbNOX; test: thio-NAD+ reduction at […] nm / NADPH depletion at […] nm; type: biochemical, Escherichia coli; details: 50 mM Tris-HCl pH 7.5, 10 μM FAD, 35 °C, EcSTH site
T5 construct: gene sthA; single-chain fusion EcSTH-Flag-LbNOX, three tandem Flag peptides as linker, expressed in HeLa cells, anti-Flag M2 purified; with NADH oxidase (water-forming)

[9] = substrate: NC(=S)c1ccc[n+]([C@@H]2O[C@H](COP(=O)(O)OP(=O)(O)OC[C@H]3O[C@@H](n4cnc5c(N)ncnc54)[C@H](O)[C@@H]3O)[C@@H](O)[C@H]2O)c1; test: purified protein; type: biochemical, Escherichia coli; details: 400 µM NADPH, 50 mM Tris-HCl pH 7.5, 10 μM FAD, 35 °C
[10] = substrate: NC(=O)C1=CN([C@@H]2O[C@H](COP(=O)(O)OP(=O)(O)OC[C@H]3O[C@@H](n4cnc5c(N)ncnc54)[C@H](OP(=O)(O)O)[C@@H]3O)[C@@H](O)[C@H]2O)C=CC1; test: purified protein; type: biochemical, Escherichia coli; details: 400 µM thio-NAD+, 50 mM Tris-HCl pH 7.5, 10 μM FAD, 35 °C
[11] = substrate: NC(=O)C1=CN([C@@H]2O[C@H](COP(=O)(O)OP(=O)(O)OC[C@H]3O[C@@H](n4cnc5c(N)ncnc54)[C@H](O)[C@@H]3O)[C@@H](O)[C@H]2O)C=CC1; test: purified protein; details: 50 mM Tris-HCl pH 7.5, 10 μM FAD, 35 °C

Nc1ncnc2c1ncn2[C@@H]1O[C@H](COP(=O)(O)OP(=O)(O)O)[C@@H](O)[C@H]1O [ADP]
IC50 ([1]; read-out: IC50 of ADP (PRPS1)): 41.3 µM | IC50 ([2]; read-out: IC50 of ADP (PRPS2)): 77.4 µM

Nc1nc2c(ncn2[C@@H]2O[C@H](COP(=O)(O)OP(=O)(O)O)[C@@H](O)[C@H]2O)c(=O)[nH]1 [GDP]
ATP consumption, Kinase-Glo [3]: NADH and NAD^+ exerted no effect on the suppression of PRPS1 by ADP or GDP | IC50 ([1]; read-out: IC50 of GDP (PRPS1)): 171 µM | IC50 ([2]; read-out: IC50 of GDP (PRPS2)): 251 µM | ATP consumption, Kinase-Glo [4]: protected PRPS2 against inhibition by ADP, but not against that by GDP

CC1=CC(=O)c2ccccc2C1=O [Menadione]
IC50 [5]: 27.4 µM | IC50 [6]: 27.8 µM

NC(=O)C1=CN([C@@H]2O[C@H](COP(=O)(O)OP(=O)(O)OC[C@H]3O[C@@H](n4cnc5c(N)ncnc54)[C@H](O)[C@@H]3O)[C@@H](O)[C@H]2O)C=CC1 [NADH]
Kd [7]: 118 µM

NC(=O)C1=CN([C@@H]2O[C@H](COP(=O)(O)OP(=O)(O)OC[C@H]3O[C@@H](n4cnc5c(N)ncnc54)[C@H](OP(=O)(O)O)[C@@H]3O)[C@@H](O)[C@H]2O)C=CC1 [NADPH]
Km ([8]; 400 µM thio-NAD+): 194 µM

NC(=S)c1ccc[n+]([C@@H]2O[C@H](COP(=O)(O)OP(=O)(O)OC[C@H]3O[C@@H](n4cnc5c(N)ncnc54)[C@H](O)[C@@H]3O)[C@@H](O)[C@H]2O)c1 [thio-NAD^+]
Km ([8]; 400 µM NADPH): 272 µM

B1: EcSTH (Escherichia coli K-12) (protein)
chain: PHSYDYDAIVIGSGPGGEGAAMGLVKQGARVAVIERYQNVGGGCTHWGTIPSKALRHAVSRIIEFNQNPLYSDHSRLLRSSFADILNHADNVINQQTRMRQGFYERNHCEILQGNARFVDEHTLALDCPDGSVETLTAEKFVIACGSRPYHPTDVDFTHPRIYDSDSILSMHHEPRHVLIYGAGVIGCEYASIFRGMDVKVDLINTRDRLLAFLDQEMSDSLSYHFWNSGVVIRHNEEYEKIEGCDDGVIMHLKSGKKLKADCLLYANGRTGNTDSLALQNIGLETDSRGQLKVNSMYQTAQPHVYAVGDVIGYPSLASAAYDQGRIAAQALVKGEATAHLIEDIPTGIYTIPEISSVGKTEQQLTAMKVPYEVGRAQFKHLARAQIVGMNVGTLKILFHRETKEILGIHCFGERAAEIIHIGQAIMEQKGGGNTIEYFVNTTFNYPTMAEAYRVAALNGLNRLF
notes: C-terminal Flag tag (EcSTH-Flag), human-codon cDNA, expressed in HeLa cells, anti-Flag M2 purified
Km [9]: 242.8 µM | kcat [9]: 82.73 s⁻¹ | Km [10]: 137.1 µM | kcat [10]: 81.73 s⁻¹

B2: LbNOX (Levilactobacillus brevis ATCC 367) (protein)
chain: MKVTVVGCTHAGTFAIKQILAEHPDAEVTVYERNDVISFLSCGIALYLGGKVADPQGLFYSSPEELQKLGANVQMNHNVLAIDPDQKTVTVEDLTNHAQTTESYDKLVMTSGSWPIVPKIPGIDSDRVKLCKNWAHAQALIEDAKEAKRITVIGAGYIGAELAEAYSTTGHDVTLIDAMARVMPKYFDADFTDVIEQDYRDHGVQLALGETVESFTDSATGLTIKTDKNSYETDLAILCIGFRPNTDLLKGKVDMAPNGAIITDDYMRSSNPDIFAAGDSAAVHYNPTHQNAYIPLATNAVRQGILVGKNLVKPTVKYMGTQSSSGLALYDRTIVSTGLTLAAAKQQGLNAEQVIVEDNYRPEFMPSTEPVLMSLVFDPDTHRILGGALMSKYDVSQSANTLSVCIQNENTIDDLAMVDMLFQPNFDRPFNYLNILAQAAQAKVAQSVNA
Km [11]: 88.73 µM | kcat [11]: 836.55 s⁻¹
